The target in data set [1] is T1, CYP2C8 (Homo sapiens, UniProt P10632).
T1 sequence (P10632 1-490): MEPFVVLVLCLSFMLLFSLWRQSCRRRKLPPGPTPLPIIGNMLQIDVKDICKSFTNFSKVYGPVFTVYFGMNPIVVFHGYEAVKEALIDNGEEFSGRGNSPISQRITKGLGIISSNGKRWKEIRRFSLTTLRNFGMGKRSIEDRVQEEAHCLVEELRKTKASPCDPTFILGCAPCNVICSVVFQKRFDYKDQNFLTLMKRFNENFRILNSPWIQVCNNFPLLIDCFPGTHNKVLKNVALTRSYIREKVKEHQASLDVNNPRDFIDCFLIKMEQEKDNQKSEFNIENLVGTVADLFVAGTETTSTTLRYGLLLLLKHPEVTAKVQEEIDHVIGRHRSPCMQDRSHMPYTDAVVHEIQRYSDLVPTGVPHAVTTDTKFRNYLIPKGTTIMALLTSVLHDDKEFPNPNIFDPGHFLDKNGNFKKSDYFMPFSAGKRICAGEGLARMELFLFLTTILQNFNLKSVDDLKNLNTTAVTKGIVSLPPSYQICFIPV
The data set is described as follows: Contribution of CYP2C8 in the metabolism of apalutamide. Details: endogenous in cells; host or cells: human subjects, in vivo. The note with it: estimated. An excerpt:
(§1) Metabolism is the main route of elimination of apalutamide.

Data set [2] deals with dogs. The data set is described as follows: Repeat-dose toxicity study in dogs (up to 39 weeks). Type of data set: in vivo, dog.
For data set [3], the target named is CYP2C9 (Homo sapiens, UniProt P11712). The data set is described as follows: In vitro CYP inhibition.
Data set [4] deals with BCRP/OATP1B1. Kind of data set: Co-administration of ERLEADA with rosuvastatin (BCRP/OATP1B1 substrate). The note with it: in vivo.
In data set [5] the target is T2, CYP3A4 (Homo sapiens, UniProt P08684). Kind of data set: Contribution of CYP3A4 in the metabolism of apalutamide. Details: endogenous in cells; host or cells: human subjects, in vivo. The note with it: estimated.
Text: as §1

Data set [6] concerns non-castrate hormone-sensitive and bicalutamide-resistant human prostate cancer xenograft models. The note with it: Clegg et al. Cancer Res. 2012; cited from earlier work.
In data set [7] the target is T1, CYP2C8. The data set is described as follows: In vitro CYP inhibition.
Data set [8] can be described thus: Ionization under physiological pH. Type of data set: physicochemical. The note with it: relevant physiological pH condition.
Data set [9] concerns rat. Kind of data set: In vivo rat Comet assay.
The target in data set [10] is CYP2D6 (Homo sapiens, UniProt P10635). Kind of data set: In vitro effect on CYP. The note with it: therapeutically relevant concentrations.
Data set [11] has as its target BCRP (Homo sapiens, UniProt Q9UNQ0). Kind of data set: In vitro transporter substrate study.
Data set [12] deals with T2, CYP3A4. The data set is described as follows: In vitro CYP inhibition.
In data set [13] the test system is bacterial reverse mutation (Ames) assay. The format is cell-based.
Data set [14] deals with male rats. Kind of data set: Fertility study in male rats. The format is in vivo, rat.

T2 sequence (P08684 whole entry): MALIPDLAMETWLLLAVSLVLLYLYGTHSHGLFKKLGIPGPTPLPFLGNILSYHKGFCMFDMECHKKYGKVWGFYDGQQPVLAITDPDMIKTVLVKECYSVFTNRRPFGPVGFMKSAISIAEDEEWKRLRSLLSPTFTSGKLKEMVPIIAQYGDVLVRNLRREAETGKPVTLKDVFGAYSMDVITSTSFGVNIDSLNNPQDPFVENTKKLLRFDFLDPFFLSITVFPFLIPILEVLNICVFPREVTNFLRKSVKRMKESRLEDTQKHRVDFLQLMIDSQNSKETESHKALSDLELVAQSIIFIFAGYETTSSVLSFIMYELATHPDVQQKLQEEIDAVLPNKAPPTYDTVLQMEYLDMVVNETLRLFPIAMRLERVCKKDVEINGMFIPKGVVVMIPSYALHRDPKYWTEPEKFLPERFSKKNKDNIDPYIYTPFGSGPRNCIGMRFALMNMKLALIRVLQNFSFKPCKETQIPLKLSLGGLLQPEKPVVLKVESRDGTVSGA
Sequence of BCRP (Q9UNQ0 whole entry): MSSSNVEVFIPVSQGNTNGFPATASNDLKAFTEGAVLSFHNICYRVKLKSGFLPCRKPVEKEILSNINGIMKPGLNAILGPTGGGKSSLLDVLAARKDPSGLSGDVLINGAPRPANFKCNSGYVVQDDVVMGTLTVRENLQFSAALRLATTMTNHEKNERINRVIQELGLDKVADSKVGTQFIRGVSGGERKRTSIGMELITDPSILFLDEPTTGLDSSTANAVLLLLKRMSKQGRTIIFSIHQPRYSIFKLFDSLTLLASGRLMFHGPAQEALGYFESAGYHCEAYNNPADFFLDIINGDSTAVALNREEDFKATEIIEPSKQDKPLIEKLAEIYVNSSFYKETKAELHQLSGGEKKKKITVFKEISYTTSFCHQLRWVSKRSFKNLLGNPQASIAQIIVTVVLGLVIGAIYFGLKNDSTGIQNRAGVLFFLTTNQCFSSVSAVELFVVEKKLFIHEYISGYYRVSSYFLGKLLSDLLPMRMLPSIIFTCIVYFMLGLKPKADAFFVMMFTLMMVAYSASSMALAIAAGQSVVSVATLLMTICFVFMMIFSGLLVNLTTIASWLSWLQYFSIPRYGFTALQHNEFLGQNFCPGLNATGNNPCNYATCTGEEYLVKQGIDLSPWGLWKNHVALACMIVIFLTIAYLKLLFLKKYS
Sequence of CYP2C9 (P11712 whole entry): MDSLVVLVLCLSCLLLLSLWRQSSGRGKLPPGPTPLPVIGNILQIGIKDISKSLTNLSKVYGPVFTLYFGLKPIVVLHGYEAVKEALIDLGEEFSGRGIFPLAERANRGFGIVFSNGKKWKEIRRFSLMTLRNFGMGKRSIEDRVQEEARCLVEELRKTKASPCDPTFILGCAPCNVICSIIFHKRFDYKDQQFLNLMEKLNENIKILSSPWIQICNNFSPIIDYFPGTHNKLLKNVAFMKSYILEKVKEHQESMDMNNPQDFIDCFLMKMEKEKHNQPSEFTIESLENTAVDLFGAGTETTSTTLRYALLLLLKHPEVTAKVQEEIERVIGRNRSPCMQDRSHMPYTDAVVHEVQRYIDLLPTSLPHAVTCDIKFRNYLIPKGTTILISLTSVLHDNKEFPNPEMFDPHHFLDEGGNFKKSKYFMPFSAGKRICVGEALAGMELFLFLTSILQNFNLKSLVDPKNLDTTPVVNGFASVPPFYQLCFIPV
Sequence of CYP2D6 (P10635 whole entry): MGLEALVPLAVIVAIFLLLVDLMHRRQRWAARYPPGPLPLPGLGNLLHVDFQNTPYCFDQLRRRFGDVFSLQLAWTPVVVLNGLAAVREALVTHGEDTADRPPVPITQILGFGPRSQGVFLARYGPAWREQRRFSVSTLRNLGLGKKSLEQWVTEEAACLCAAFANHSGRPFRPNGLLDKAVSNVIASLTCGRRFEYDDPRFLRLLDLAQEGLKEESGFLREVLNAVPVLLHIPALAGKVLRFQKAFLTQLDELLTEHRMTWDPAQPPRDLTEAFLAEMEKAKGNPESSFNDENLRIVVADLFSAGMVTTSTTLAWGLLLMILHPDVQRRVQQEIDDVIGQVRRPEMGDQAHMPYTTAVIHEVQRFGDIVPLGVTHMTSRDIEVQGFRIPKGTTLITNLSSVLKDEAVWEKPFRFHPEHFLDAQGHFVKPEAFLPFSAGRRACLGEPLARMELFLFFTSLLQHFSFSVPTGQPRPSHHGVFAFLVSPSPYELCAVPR

For `CNC(=O)c1ccc(N2C(=S)N(c3cnc(C#N)c(C(F)(F)F)c3)C(=O)C23CCC3)cc1F` [Apalutamide, 4-[7-(6-cyano-5-trifluoromethylpyridin-3-yl)-8-oxo-6-thioxo-5,7-diazaspiro[3.4]oct-5-yl]-2-fluoro-N-methylbenzamide], the “Contribution of CYP2C8 in the metabolism of apalutamide” value in [1] (at steady-state) is 40%; in [1] (following single dose), 58%. Besides, the “Dose at which atrophy of prostate gland and seminal vesicles, aspermia/hypospermia, tubular degeneration and/or interstitial cell hyperplasia or hypertrophy were observed” value in data set [2] is ≥ 2.5 mg/kg/day. The CYP2C9 inhibition entry in data set [3] is “weak inhibitors”. In data set [4], the “Induction of BCRP and OATP1B1, clinically” value is listed as “weak inducer”. Moreover, the “Contribution of CYP3A4 in the metabolism of apalutamide” value in data set [5] (at steady-state) is 37%; in data set [5] (following single dose) it was 13%. Also, the Tumor response entry in data set [6] is listed as “partial or complete tumor regression”. The CYP2C8 inhibition result in data set [7] is recorded as “moderate inhibitors”. The Ionization result in data set [8] is listed as “not ionizable”. The Genotoxicity entry in data set [9] was “not genotoxic”. In addition, the “Effect on CYP2D6” value in data set [10] is “do not affect”. Further, the “Substrate for BCRP” value in [11] is listed as “not”. The CYP3A4 inhibition entry in data set [12] was “weak inhibitors”. Further, the Mutagenicity entry in [13] is “did not induce mutations”. In data set [14] (4 weeks of administration), the “Dose at which a reduced number of live fetuses due to increased pre- and/or post-implantation loss was observed” value is listed as 150 mg/kg/day. The “Dose at which decreased sperm concentration and motility, abnormal sperm morphology, lower copulation and fertility rates, reduced secondary sex gland and epididymis weights were observed” value in data set [14] (4 weeks of dosing) is ≥ 25 mg/kg/day. Besides, in [14] (rat, in vivo), the “Time after last administration at which effects on male rats were reversible” value turned out to be 8 weeks.

The values above are taken from patent publication US12303497B2, “Anti-androgens for the treatment of metastatic castration-sensitive prostate cancer” (priority 2019, dated 2025).
